Reference: PubChem BioAssay (NCI)
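1) Cells in 96-well plates. 2) Compound, 48 h, 5 concentrations. 3) Linear interpolation between surrounding doses. 4) Unreached endpoint = highest concentration. TGI: concentration producing complete growth inhibition.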

Key:
Test in all cases: DTP human tumour cell line panel, 48 h
TK-10 renal = test system: TK-10 renal
HCT-15 colon = test system: HCT-15 colon
EKVX NSCLC = test system: EKVX NSCLC
HOP-62 NSCLC = test system: HOP-62 NSCLC
SK-MEL-28 melanoma = test system: SK-MEL-28 melanoma
NCI-H460 lung = test system: NCI-H460 lung
KM12 colon = test system: KM12 colon
CCRF-CEM leukemia = test system: CCRF-CEM leukemia
SF-268 CNS = test system: SF-268 CNS
SN12C renal = test system: SN12C renal
LOX IMVI melanoma = test system: LOX IMVI melanoma
HT29 colon = test system: HT29 colon
BT-549 breast = test system: BT-549 breast
COLO 205 colon = test system: COLO 205 colon
OVCAR-8 ovarian = test system: OVCAR-8 ovarian
HCC-2998 colon = test system: HCC-2998 colon
RPMI-8226 leukemia = test system: RPMI-8226 leukemia
A498 renal = test system: A498 renal
NCI-H522 lung = test system: NCI-H522 lung
OVCAR-5 ovarian = test system: OVCAR-5 ovarian
SK-MEL-5 melanoma = test system: SK-MEL-5 melanoma
UO-31 renal = test system: UO-31 renal
ACHN renal = test system: ACHN renal
MDA-MB-435 = test system: MDA-MB-435
DU-145 prostate = test system: DU-145 prostate
MOLT-4 leukemia = test system: MOLT-4 leukemia
NCI-H226 lung = test system: NCI-H226 lung
UACC-62 melanoma = test system: UACC-62 melanoma
K-562 leukemia = test system: K-562 leukemia
SNB-19 CNS = test system: SNB-19 CNS
PC-3 prostate = test system: PC-3 prostate
RXF 393 renal = test system: RXF 393 renal
UACC-257 melanoma = test system: UACC-257 melanoma
CAKI-1 renal = test system: CAKI-1 renal
SNB-75 CNS = test system: SNB-75 CNS
IGROV1 ovarian = test system: IGROV1 ovarian
OVCAR-4 ovarian = test system: OVCAR-4 ovarian
HCT-116 colon = test system: HCT-116 colon
HOP-92 NSCLC = test system: HOP-92 NSCLC
M14 melanoma = test system: M14 melanoma
786-0 renal = test system: 786-0 renal
A549 NSCLC = test system: A549 NSCLC
MDA-N = test system: MDA-N
NCI-H23 lung = test system: NCI-H23 lung
U251 CNS = test system: U251 CNS
SF-295 CNS = test system: SF-295 CNS
SR leukemia = test system: SR leukemia
MCF7 breast = test system: MCF7 breast
MALME-3M melanoma = test system: MALME-3M melanoma
HS 578T breast = test system: HS 578T breast
SK-MEL-2 melanoma = test system: SK-MEL-2 melanoma
MDA-MB-231 breast = test system: MDA-MB-231 breast
NCI/ADR-RES ovarian = test system: NCI/ADR-RES ovarian
SK-OV-3 ovarian = test system: SK-OV-3 ovarian
T-47D breast = test system: T-47D breast
HL-60(TB) leukemia = test system: HL-60(TB) leukemia
OVCAR-3 ovarian = test system: OVCAR-3 ovarian
SW-620 colon = test system: SW-620 colon
SF-539 CNS = test system: SF-539 CNS
LXFL 529 NSCLC = test system: LXFL 529 NSCLC
KM20L2 colon = test system: KM20L2 colon
DMS 273 small cell lung = test system: DMS 273 small cell lung
M19-MEL melanoma = test system: M19-MEL melanoma
DLD-1 colon = test system: DLD-1 colon

With CCCCCCCC(=O)OC[n+]1ccc(-c2c(COC(=O)NC(C)C)c(COC(=O)NC(C)C)c3n2CCC3)cc1 the TGI (TK-10 renal) was > 100 µM, the TGI (HCT-15 colon) was > 100 µM and the TGI (EKVX NSCLC) was > 100 µM. For the same compound, the TGI (HOP-62 NSCLC) was > 100 µM, the TGI (SK-MEL-28 melanoma) was > 100 µM and the TGI (NCI-H460 lung) was > 100 µM. The TGI (KM12 colon) was > 100 µM, the TGI (CCRF-CEM leukemia) was > 60.3 µM and the TGI (SF-268 CNS) was > 73.8 µM. For the same compound, the TGI (SN12C renal) was > 100 µM, the TGI (LOX IMVI melanoma) was 54 µM and the TGI (HT29 colon) was > 100 µM. For the same compound, the TGI (BT-549 breast) was > 94.1 µM, the TGI (COLO 205 colon) was > 100 µM and the TGI (OVCAR-8 ovarian) was > 100 µM. For the same compound, the TGI (HCC-2998 colon) was > 100 µM, the TGI (RPMI-8226 leukemia) was 66.2 µM and the TGI (A498 renal) was 85.1 µM. For the same compound, the TGI (NCI-H522 lung) was > 59.6 µM, the TGI (OVCAR-5 ovarian) was > 100 µM and the TGI (SK-MEL-5 melanoma) was > 100 µM. The TGI (UO-31 renal) was > 100 µM, the TGI (ACHN renal) was 68.9 µM and the TGI (MDA-MB-435) was > 100 µM. For the same compound, the TGI (DU-145 prostate) was > 59.8 µM, the TGI (MOLT-4 leukemia) was > 59 µM and the TGI (NCI-H226 lung) was > 100 µM. The TGI (UACC-62 melanoma) was 33.5 µM, the TGI (K-562 leukemia) was > 100 µM and the TGI (SNB-19 CNS) was > 100 µM. For the same compound, the TGI (PC-3 prostate) was > 100 µM, the TGI (RXF 393 renal) was 49.9 µM and the TGI (UACC-257 melanoma) was > 100 µM. The TGI (CAKI-1 renal) was 62.7 µM, the TGI (SNB-75 CNS) was > 100 µM and the TGI (IGROV1 ovarian) was > 68.3 µM. For the same compound, the TGI (OVCAR-4 ovarian) was > 100 µM, the TGI (HCT-116 colon) was > 71.4 µM and the TGI (HOP-92 NSCLC) was 83.8 µM. For the same compound, the TGI (M14 melanoma) was > 100 µM, the TGI (786-0 renal) was > 79.8 µM and the TGI (A549 NSCLC) was > 100 µM. For the same compound, the TGI (MDA-N) was > 100 µM, the TGI (NCI-H23 lung) was > 100 µM and the TGI (U251 CNS) was > 100 µM. The TGI (SF-295 CNS) was > 100 µM, the TGI (SR leukemia) was > 56 µM and the TGI (MCF7 breast) was > 100 µM. The TGI (MALME-3M melanoma) was > 90.6 µM, the TGI (HS 578T breast) was > 100 µM and the TGI (SK-MEL-2 melanoma) was 47.1 µM. The TGI (MDA-MB-231 breast) was > 100 µM, the TGI (NCI/ADR-RES ovarian) was > 100 µM and the TGI (SK-OV-3 ovarian) was > 100 µM. The TGI (T-47D breast) was > 100 µM, the TGI (HL-60(TB) leukemia) was 52.4 µM and the TGI (OVCAR-3 ovarian) was > 100 µM. For the same compound, the TGI (SW-620 colon) was 60.8 µM and the TGI (SF-539 CNS) was > 66.3 µM.

For N#CC(c1ccc(Cl)cc1)c1c(O)nc2ccc(=N)cc-2n1O (stereo unspecified), the TGI (TK-10 renal) was > 100 µM, the TGI (LXFL 529 NSCLC) was > 100 µM and the TGI (EKVX NSCLC) was > 100 µM. For the same compound, the TGI (SK-MEL-28 melanoma) was > 100 µM, the TGI (KM12 colon) was > 100 µM and the TGI (CCRF-CEM leukemia) was > 100 µM. The TGI (SF-268 CNS) was > 100 µM, the TGI (LOX IMVI melanoma) was > 100 µM and the TGI (HT29 colon) was > 100 µM. For the same compound, the TGI (KM20L2 colon) was > 100 µM, the TGI (DMS 273 small cell lung) was > 100 µM and the TGI (RPMI-8226 leukemia) was > 100 µM. The TGI (NCI-H522 lung) was > 100 µM, the TGI (M19-MEL melanoma) was > 100 µM and the TGI (SK-MEL-5 melanoma) was > 100 µM. The TGI (ACHN renal) was > 100 µM, the TGI (MOLT-4 leukemia) was > 100 µM and the TGI (NCI-H226 lung) was > 100 µM. The TGI (UACC-62 melanoma) was > 100 µM, the TGI (K-562 leukemia) was > 100 µM and the TGI (DLD-1 colon) was > 100 µM. For the same compound, the TGI (UACC-257 melanoma) was > 100 µM, the TGI (CAKI-1 renal) was > 100 µM and the TGI (SNB-75 CNS) was > 100 µM. The TGI (IGROV1 ovarian) was > 100 µM, the TGI (HCT-116 colon) was > 100 µM and the TGI (HOP-92 NSCLC) was > 100 µM. For the same compound, the TGI (M14 melanoma) was > 100 µM, the TGI (786-0 renal) was > 100 µM and the TGI (A549 NSCLC) was > 100 µM. The TGI (SF-295 CNS) was > 100 µM, the TGI (SR leukemia) was > 100 µM and the TGI (SK-OV-3 ovarian) was > 100 µM. The TGI (HL-60(TB) leukemia) was > 100 µM, the TGI (OVCAR-3 ovarian) was > 100 µM and the TGI (SW-620 colon) was > 100 µM. The TGI (SF-539 CNS) was > 100 µM.
